Values joined by “and” are separate entries in the source; they are usually repeats but may differ in a detail not shown here. Equal values may be shown once. Numbers after ± are expanded uncertainties.
Conditions: Pendant drop shape

Compound: O [water]
- surface tension liquid-gas (283.2 K): 74.8 ± 2.3 mN/m and 74.83 ± 2.1 mN/m
- surface tension liquid-gas (288.2 K): 73.65 ± 2.3 mN/m and 73.67 ± 2.1 mN/m
- surface tension liquid-gas (293.2 K): 73.07 ± 2.1 mN/m and 73.03 ± 2.1 mN/m
- surface tension liquid-gas (298.2 K): 72.21 ± 2.2 mN/m and 72.13 ± 2.1 mN/m
